Values after ≈ are worked out from the molar mass of the structure shown. Active and inactive are the calls of the source. No cut-off for these calls is given here.
How the values were obtained:
[1] = system: Staphylococcus aureus; test: Antibacterial activity against Staphylococcus aureus NRS119 by broth microdilution method; format: functional
[2] = system: Staphylococcus aureus; test: Antibacterial activity against Staphylococcus aureus NRS120 by broth microdilution method; format: functional
[3] = system: Enterococcus faecalis; test: Antibacterial activity against vancomycin-susceptible Enterococcus faecalis 201 clinical isolate by broth microdilution method; format: functional
[4] = Plasma protein binding in human at […] incubated for 2 hrs by UPLC analysis; format: ADME, cell-free; conditions: read-out: PPB (converted)
[5] = AUC (0 to last) in ICR mouse at 20 mg/kg, po administered as via gavage measured for 36 hrs by UPLC analysis; format: ADME, organism-based; conditions: in vivo
[6] = system: Enterococcus faecium; test: Antibacterial activity against vancomycin-resistant Enterococcus faecium 106 clinical isolate by broth microdilution method; format: functional
[7] = Terminal half life in ICR mouse at 20 mg/kg, po administered as via gavage measured for 36 hrs by UPLC analysis; format: ADME, organism-based; conditions: in vivo, read-out: beta t1/2 (converted)
[8] = Tmax in ICR mouse at 20 mg/kg, po administered as via gavage measured for 36 hrs by UPLC analysis; format: ADME, organism-based; conditions: in vivo
[9] = AUC (0 to infinity) in ICR mouse at 20 mg/kg, iv measured for 24 hrs by UPLC analysis; format: ADME, organism-based; parameters: dose 20 mg/kg, time infinity, route intravenous; conditions: in vivo
[10] = system: Staphylococcus haemolyticus; test: Antibacterial activity against Staphylococcus haemolyticus ATCC 29970 by broth microdilution method; format: functional
[11] = Drug level in mouse thigh infected with linezolid-resistant Staphylococcus aureus NRS119 at 40 mg/kg, po administered 1 hrs post infection and measured for 48 hrs; format: ADME, organism-based; conditions: read-out: Drug uptake
[12] = system: Staphylococcus aureus; test: Antibacterial activity against vancomycin-resistant Staphylococcus aureus VRS2 clinical isolate by broth microdilution method; format: functional
[13] = system: Staphylococcus aureus; test: Antibacterial activity against Staphylococcus aureus ATCC 29213 by broth microdilution method; format: functional
[14] = Cmax in ICR mouse at 20 mg/kg, po administered as via gavage measured for 36 hrs by UPLC analysis; format: ADME, organism-based; parameters: dose 20 mg/kg, route oral; conditions: in vivo
[15] = AUC (0 to last) in ICR mouse at 20 mg/kg, iv measured for 24 hrs by UPLC analysis; format: ADME, organism-based; conditions: in vivo
[16] = system: Enterococcus faecalis; test: Antibacterial activity against Enterococcus faecalis ATCC 29212 by broth microdilution method; format: functional
[17] = system: Staphylococcus aureus; test: Antibacterial activity against vancomycin-resistant Staphylococcus aureus VRS1 clinical isolate by broth microdilution method; format: functional
[18] = system: Enterococcus faecium; test: Antibacterial activity against Enterococcus faecium NCTC 7171 by broth microdilution method; format: functional
[19] = system: Staphylococcus aureus; test: Antibacterial activity against Staphylococcus aureus NRS100 (COL) by broth microdilution method; format: functional
[20] = Clearance in ICR mouse at 20 mg/kg, iv measured for 24 hrs by UPLC analysis; format: ADME, organism-based; conditions: in vivo
[21] = system: Staphylococcus aureus; test: Antibacterial activity against linezolid-sensitive Staphylococcus aureus NRS70 infected in mouse model of neutropenic thigh infection assessed as reduction in bacterial count at 40 mg/kg, po administered 1 hrs post infection and measured for 48 hrs; format: functional
[22] = system: Staphylococcus aureus; test: Antibacterial activity against Staphylococcus aureus N315 (NRS70) by broth microdilution method; format: functional
[23] = Volume of distribution in ICR mouse at 20 mg/kg, iv measured for 24 hrs by UPLC analysis; format: ADME, organism-based; conditions: in vivo
[24] = system: Staphylococcus epidermidis; test: Antibacterial activity against Staphylococcus epidermidis ATCC 35547 by broth microdilution method; format: functional
[25] = Hemolytic activity in human RBC relative to control; format: ADME, cell-based, Erythrocyte; conditions: red blood cells (erythrocytes), read-out: Activity
[26] = system: Staphylococcus aureus; test: Antibacterial activity against linezolid-resistant Staphylococcus aureus NRS119 infected in mouse model of neutropenic thigh infection assessed as reduction in bacterial count at 40 mg/kg, po administered […]; format: functional
[27] = system: Bacillus cereus; test: Antibacterial activity against Bacillus cereus ATCC 13061 by broth microdilution method; format: functional
[28] = AUC (0 to infinity) in ICR mouse at 20 mg/kg, po administered as via gavage measured for 36 hrs by UPLC analysis; format: ADME, organism-based; parameters: dose 20 mg/kg, route oral, time infinity; conditions: in vivo
[29] = system: Enterococcus faecium; test: Antibacterial activity against vancomycin-susceptible Enterococcus faecium 119-39A clinical isolate by broth microdilution method; format: functional
[30] = Oral bioavailability in ICR mouse at 20 mg/kg administered as via gavage measured for 36 hrs by UPLC analysis; format: ADME, organism-based; conditions: in vivo
[31] = system: HepG2; test: Cytotoxicity against human HepG2 cells assessed as reduction in cell viability by XTT assay; format: cell-based
[32] = system: Staphylococcus aureus; test: Antibacterial activity against Staphylococcus aureus ATCC 27660 by broth microdilution method; format: functional
[33] = Distribution half life in ICR mouse at 20 mg/kg, po administered as via gavage measured for 36 hrs by UPLC analysis; format: ADME, organism-based; conditions: in vivo, read-out: alphat1/2 (converted)
[34] = system: Bacillus licheniformis; test: Antibacterial activity against Bacillus licheniformis ATCC 12759 by broth microdilution method; format: functional
[35] = Distribution half life in ICR mouse at 20 mg/kg, iv measured for 24 hrs by UPLC analysis; format: ADME, organism-based; conditions: in vivo, read-out: alphat1/2 (converted)
[36] = Drug level in mouse thigh infected with linezolid-sensitive Staphylococcus aureus NRS70 at 40 mg/kg, po administered 1 hrs post infection and measured for 48 hrs; format: ADME, organism-based; conditions: read-out: Drug uptake
[37] = system: Staphylococcus aureus; test: Antibacterial activity against Staphylococcus aureus ATCC 27660 infected in mouse model of peritonitis at 20 mg/kg, iv dosed at 30 mins and 7.5 hrs post infection and measured for 2 days
[38] = Terminal half life in ICR mouse at 20 mg/kg, iv measured for 24 hrs by UPLC analysis; format: ADME, organism-based; conditions: in vivo, read-out: beta t1/2 (converted)
[39] = system: Enterococcus faecalis; test: Antibacterial activity against vancomycin-resistant Enterococcus faecalis 99 clinical isolate by broth microdilution method; format: functional

Fc1ccc(Oc2ccc(-c3noc(-c4ccc5[nH]ccc5c4)n3)cc2)cc1
MIC [1]: 1 to 2 µg/mL (≈ 2.69 to 5.39 µM)
MIC [2]: 2 µg/mL (≈ 5.39 µM)
MIC [3]: 4 µg/mL (≈ 10.8 µM)
fraction unbound at 2 h [4]: 0.012
AUClast [5]: 718 uM.min/ml
MIC [6]: 1 µg/mL (≈ 2.69 µM)
half-life [7]: 17 h
Tmax [8]: 2.5 h
AUC [9]: 2570 uM.min/ml
MIC [10]: 2 µg/mL (≈ 5.39 µM)
concentration at 48 h [11]: 6400 ng/g
MIC [12]: 1 µg/mL (≈ 2.69 µM)
MIC [13]: 1 to 2 µg/mL (≈ 2.69 to 5.39 µM)
Cmax [14]: 1000 ng/mL
AUClast [15]: 1790 uM.min/ml
MIC [16]: 4 µg/mL (≈ 10.8 µM)
MIC [17]: 1 µg/mL (≈ 2.69 µM)
MIC [18]: 1 µg/mL (≈ 2.69 µM)
MIC [19]: 2 µg/mL (≈ 5.39 µM)
clearance [20]: 7.8 mL/min/kg
Activity [21]: 1.1 log10CFU
MIC [22]: 1 µg/mL (≈ 2.69 µM)
Vd [23]: 14.2 L/kg
MIC [24]: 1 µg/mL (≈ 2.69 µM)
hemolysis [25]: < 1%
Activity [26]: 1.5 log10CFU
MIC [27]: 4 µg/mL (≈ 10.8 µM)
AUC [28]: 1040 uM.min/ml
MIC [29]: 1 µg/mL (≈ 2.69 µM)
bioavailability [30]: 41%
IC50 [31]: 37 µg/mL (≈ 99.6 µM)
MIC [32]: 2 to 4 µg/mL (≈ 5.39 to 10.8 µM)
half-life [33]: 6.2 h
MIC [34]: 2 µg/mL (≈ 5.39 µM)
half-life [35]: 0.4 h
concentration at 48 h [36]: 5800 ng/g
Activity [37]: Active
half-life [38]: 21.1 h
MIC [39]: 4 µg/mL (≈ 10.8 µM)
